{"source": "the supplement of paper PMC4862054", "assay_in_all_cases": "normalised viability (% of control), CellTiter-Blue; higher = more viable cells (about 100 = DMSO control)", "key": {"[1]": {"system": "MDA-MB-436", "details": "100000 nM; incubation time: 72 h", "in_short": "(§1)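 The reported figure is normalised viability at a single listed concentration of the series. Breast cancer cell lines (20 µl suspension) went onto 384-well plates holding compound in 5 µl medium for 72 h. CellTiter-Blue (2.5 µl, 2 h, 37 °C) was read by fluorescence at 560/590 nm, and each plate was scaled to vehicle at 100 and a positive kill control at 0.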"}, "[2]": {"system": "Hs578T", "details": "100000 nM; incubation time: 72 h", "in_short": "as §1"}, "[3]": {"system": "MDA-MB-231", "details": "100000 nM; incubation time: 72 h", "in_short": "as §1"}, "[4]": {"system": "HCC1937", "details": "100000 nM; incubation time: 72 h", "in_short": "as §1"}, "[5]": {"system": "MDA-MB-468", "details": "100000 nM; incubation time: 72 h", "in_short": "as §1"}, "[6]": {"system": "BT-549", "details": "100000 nM; incubation time: 72 h", "in_short": "as §1"}, "[7]": {"system": "HCC1599", "details": "100000 nM; incubation time: 72 h", "in_short": "as §1"}, "[8]": {"system": "DU-4475", "details": "1000 nM; incubation time: 72 h", "in_short": "as §1"}, "[9]": {"system": "HDQ-P1", "details": "1000 nM; incubation time: 72 h", "in_short": "as §1"}, "[10]": {"system": "BT-474", "details": "100000 nM; incubation time: 72 h", "in_short": "as §1"}, "[11]": {"system": "CAL-85-1", "details": "1000 nM; incubation time: 72 h", "in_short": "as §1"}, "[12]": {"system": "CAL-51", "details": "1000 nM; incubation time: 72 h", "in_short": "as §1"}, "[13]": {"system": "CAL-148", "details": "1000 nM; incubation time: 72 h", "in_short": "as §1"}, "[14]": {"system": "MDA-MB-453", "details": "30 nM; incubation time: 72 h", "in_short": "as §1"}, "[15]": {"system": "MDA-MB-436", "details": "100 nM; incubation time: 72 h", "in_short": "as §1"}, "[16]": {"system": "Hs578T", "details": "100 nM; incubation time: 72 h", "in_short": "as §1"}, "[17]": {"system": "SK-BR-3", "details": "100 nM; incubation time: 72 h", "in_short": "as §1"}, "[18]": {"system": "MDA-MB-231", "details": "100 nM; incubation time: 72 h", "in_short": "as §1"}, "[19]": {"system": "HCC1937", "details": "100 nM; incubation time: 72 h", "in_short": "as §1"}, "[20]": {"system": "MDA-MB-468", "details": "100 nM; incubation time: 72 h", "in_short": "as §1"}, "[21]": {"system": "BT-549", "details": "100 nM; incubation time: 72 h", "in_short": "as §1"}, "[22]": {"system": "HCC1599", "details": "100 nM; incubation time: 72 h", "in_short": "as §1"}, "[23]": {"system": "CAL-120", "details": "100 nM; incubation time: 72 h", "in_short": "as §1"}, "[24]": {"system": "MFM-223", "details": "100 nM; incubation time: 72 h", "in_short": "as §1"}, "[25]": {"system": "HCC1143", "details": "100 nM; incubation time: 72 h", "in_short": "as §1"}, "[26]": {"system": "HDQ-P1", "details": "30 nM; incubation time: 72 h", "in_short": "as §1"}, "[27]": {"system": "CAL-85-1", "details": "30 nM; incubation time: 72 h", "in_short": "as §1"}, "[28]": {"system": "CAL-51", "details": "30 nM; incubation time: 72 h", "in_short": "as §1"}, "[29]": {"system": "MDA-MB-453", "details": "10000 nM; incubation time: 72 h", "description": "(§2)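 DSRT, CellTiter-Blue viability, 72 h incubation. Signal is normalised to DMSO and benzethonium chloride controls. Value is the normalised response at dose 7.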"}, "[30]": {"system": "DU-4475", "details": "10000 nM; incubation time: 72 h", "description": "as §2"}, "[31]": {"system": "HDQ-P1", "details": "10000 nM; incubation time: 72 h", "description": "as §2"}, "[32]": {"system": "CAL-85-1", "details": "10000 nM; incubation time: 72 h", "description": "as §2"}, "[33]": {"system": "CAL-51", "details": "10000 nM; incubation time: 72 h", "description": "as §2"}, "[34]": {"system": "CAL-148", "details": "10000 nM; incubation time: 72 h", "description": "as §2"}}, "data": [{"smiles": "Cc1cc2c(C(C)C)c(O)c(O)c(C=O)c2c(O)c1-c1c(C)cc2c(C(C)C)c(O)c(O)c(C=O)c2c1O", "note": "[Gossypol]", "values": [{"measurement": "normalised viability", "setting": "[1]", "value": 1.2, "unit": "%"}, {"measurement": "normalised viability", "setting": "[2]", "value": 1.54, "unit": "%"}, {"measurement": "normalised viability", "setting": "[3]", "value": 5.74, "unit": "%"}, {"measurement": "normalised viability", "setting": "[4]", "value": 6.06, "unit": "%"}, {"measurement": "normalised viability", "setting": "[5]", "value": 2.31, "unit": "%"}, {"measurement": "normalised viability", "setting": "[6]", "value": 2.19, "unit": "%"}, {"measurement": "normalised viability", "setting": "[7]", "value": 4.74, "unit": "%"}, {"measurement": "normalised viability", "setting": "[8]", "value": 113, "unit": "%"}, {"measurement": "normalised viability", "setting": "[9]", "value": 128, "unit": "%"}, {"measurement": "normalised viability", "setting": "[10]", "value": 20.4, "unit": "%"}, {"measurement": "normalised viability", "setting": "[11]", "value": 87.7, "unit": "%"}, {"measurement": "normalised viability", "setting": "[12]", "value": 92.1, "unit": "%"}, {"measurement": "normalised viability", "setting": "[13]", "value": 107, "unit": "%"}, {"measurement": "normalised viability", "setting": "[14]", "value": 106, "unit": "%"}, {"measurement": "normalised viability", "setting": "[15]", "value": 106, "unit": "%"}, {"measurement": "normalised viability", "setting": "[16]", "value": 137, "unit": "%"}, {"measurement": "normalised viability", "setting": "[17]", "value": 106, "unit": "%"}, {"measurement": "normalised viability", "setting": "[18]", "value": 94.1, "unit": "%"}, {"measurement": "normalised viability", "setting": "[19]", "value": 116, "unit": "%"}, {"measurement": "normalised viability", "setting": "[20]", "value": 101, "unit": "%"}, {"measurement": "normalised viability", "setting": "[21]", "value": 114, "unit": "%"}, {"measurement": "normalised viability", "setting": "[22]", "value": 87.6, "unit": "%"}, {"measurement": "normalised viability", "setting": "[23]", "value": 109, "unit": "%"}, {"measurement": "normalised viability", "setting": "[24]", "value": 105, "unit": "%"}, {"measurement": "normalised viability", "setting": "[25]", "value": 115, "unit": "%"}, {"measurement": "normalised viability", "setting": "[26]", "value": 139, "unit": "%"}, {"measurement": "normalised viability", "setting": "[27]", "value": 101, "unit": "%"}, {"measurement": "normalised viability", "setting": "[28]", "value": 97.1, "unit": "%"}, {"measurement": "normalised viability", "setting": "[29]", "value": 18.4, "unit": "%"}, {"measurement": "normalised viability", "setting": "[30]", "value": 2.82, "unit": "%"}, {"measurement": "normalised viability", "setting": "[31]", "value": 52.5, "unit": "%"}, {"measurement": "normalised viability", "setting": "[32]", "value": 45.8, "unit": "%"}, {"measurement": "normalised viability", "setting": "[33]", "value": 60.5, "unit": "%"}, {"measurement": "normalised viability", "setting": "[34]", "value": 70.7, "unit": "%"}]}]}
